Drawing on patent US20250114345A1, “COMPOUNDS AND COMPOSITIONS AS CBP/P300 DEGRADERS AND USES THEREOF” (Oncopia Therapeutics, Inc. d/b/a/ SK Life Science Labs, priority 2023, published 2025), this text covers Dmax and DC50 for 13 molecules.

For this experiment, the target named is T1, p300 (Homo sapiens, UniProt Q09472).
T1 construct: host or cells: A549 P300 HiBit cells
The experiment can be described thus: P300 degradation, HiBit technology in A549 P300 HiBit cells (2 h). The format is cell-based. Particulars: 2 hrs post treatment; for Dmax: A549, A549 P300 HiBit cells; for DC50: A549 P300 HiBit cells. In a few lines:
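A549 cells carrying HiBit-tagged p300 or CBP, seeded overnight at 37 °C/5% CO2, then treated with serial compound dilutions from 10 mM DMSO stocks. Incubation was 2 h for p300 and 24 h for CBP, followed by HiBit lytic detection reagent for 10 min at room temperature. Luminescence read gave degradation potency and Dmax.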
(HiBiT is a short tag that completes a luciferase, so light tracks the accessible tagged protein.)

The structures appear in SMILES notation. Bounds are passed on as bounds.

T1 sequence (Q09472 whole entry): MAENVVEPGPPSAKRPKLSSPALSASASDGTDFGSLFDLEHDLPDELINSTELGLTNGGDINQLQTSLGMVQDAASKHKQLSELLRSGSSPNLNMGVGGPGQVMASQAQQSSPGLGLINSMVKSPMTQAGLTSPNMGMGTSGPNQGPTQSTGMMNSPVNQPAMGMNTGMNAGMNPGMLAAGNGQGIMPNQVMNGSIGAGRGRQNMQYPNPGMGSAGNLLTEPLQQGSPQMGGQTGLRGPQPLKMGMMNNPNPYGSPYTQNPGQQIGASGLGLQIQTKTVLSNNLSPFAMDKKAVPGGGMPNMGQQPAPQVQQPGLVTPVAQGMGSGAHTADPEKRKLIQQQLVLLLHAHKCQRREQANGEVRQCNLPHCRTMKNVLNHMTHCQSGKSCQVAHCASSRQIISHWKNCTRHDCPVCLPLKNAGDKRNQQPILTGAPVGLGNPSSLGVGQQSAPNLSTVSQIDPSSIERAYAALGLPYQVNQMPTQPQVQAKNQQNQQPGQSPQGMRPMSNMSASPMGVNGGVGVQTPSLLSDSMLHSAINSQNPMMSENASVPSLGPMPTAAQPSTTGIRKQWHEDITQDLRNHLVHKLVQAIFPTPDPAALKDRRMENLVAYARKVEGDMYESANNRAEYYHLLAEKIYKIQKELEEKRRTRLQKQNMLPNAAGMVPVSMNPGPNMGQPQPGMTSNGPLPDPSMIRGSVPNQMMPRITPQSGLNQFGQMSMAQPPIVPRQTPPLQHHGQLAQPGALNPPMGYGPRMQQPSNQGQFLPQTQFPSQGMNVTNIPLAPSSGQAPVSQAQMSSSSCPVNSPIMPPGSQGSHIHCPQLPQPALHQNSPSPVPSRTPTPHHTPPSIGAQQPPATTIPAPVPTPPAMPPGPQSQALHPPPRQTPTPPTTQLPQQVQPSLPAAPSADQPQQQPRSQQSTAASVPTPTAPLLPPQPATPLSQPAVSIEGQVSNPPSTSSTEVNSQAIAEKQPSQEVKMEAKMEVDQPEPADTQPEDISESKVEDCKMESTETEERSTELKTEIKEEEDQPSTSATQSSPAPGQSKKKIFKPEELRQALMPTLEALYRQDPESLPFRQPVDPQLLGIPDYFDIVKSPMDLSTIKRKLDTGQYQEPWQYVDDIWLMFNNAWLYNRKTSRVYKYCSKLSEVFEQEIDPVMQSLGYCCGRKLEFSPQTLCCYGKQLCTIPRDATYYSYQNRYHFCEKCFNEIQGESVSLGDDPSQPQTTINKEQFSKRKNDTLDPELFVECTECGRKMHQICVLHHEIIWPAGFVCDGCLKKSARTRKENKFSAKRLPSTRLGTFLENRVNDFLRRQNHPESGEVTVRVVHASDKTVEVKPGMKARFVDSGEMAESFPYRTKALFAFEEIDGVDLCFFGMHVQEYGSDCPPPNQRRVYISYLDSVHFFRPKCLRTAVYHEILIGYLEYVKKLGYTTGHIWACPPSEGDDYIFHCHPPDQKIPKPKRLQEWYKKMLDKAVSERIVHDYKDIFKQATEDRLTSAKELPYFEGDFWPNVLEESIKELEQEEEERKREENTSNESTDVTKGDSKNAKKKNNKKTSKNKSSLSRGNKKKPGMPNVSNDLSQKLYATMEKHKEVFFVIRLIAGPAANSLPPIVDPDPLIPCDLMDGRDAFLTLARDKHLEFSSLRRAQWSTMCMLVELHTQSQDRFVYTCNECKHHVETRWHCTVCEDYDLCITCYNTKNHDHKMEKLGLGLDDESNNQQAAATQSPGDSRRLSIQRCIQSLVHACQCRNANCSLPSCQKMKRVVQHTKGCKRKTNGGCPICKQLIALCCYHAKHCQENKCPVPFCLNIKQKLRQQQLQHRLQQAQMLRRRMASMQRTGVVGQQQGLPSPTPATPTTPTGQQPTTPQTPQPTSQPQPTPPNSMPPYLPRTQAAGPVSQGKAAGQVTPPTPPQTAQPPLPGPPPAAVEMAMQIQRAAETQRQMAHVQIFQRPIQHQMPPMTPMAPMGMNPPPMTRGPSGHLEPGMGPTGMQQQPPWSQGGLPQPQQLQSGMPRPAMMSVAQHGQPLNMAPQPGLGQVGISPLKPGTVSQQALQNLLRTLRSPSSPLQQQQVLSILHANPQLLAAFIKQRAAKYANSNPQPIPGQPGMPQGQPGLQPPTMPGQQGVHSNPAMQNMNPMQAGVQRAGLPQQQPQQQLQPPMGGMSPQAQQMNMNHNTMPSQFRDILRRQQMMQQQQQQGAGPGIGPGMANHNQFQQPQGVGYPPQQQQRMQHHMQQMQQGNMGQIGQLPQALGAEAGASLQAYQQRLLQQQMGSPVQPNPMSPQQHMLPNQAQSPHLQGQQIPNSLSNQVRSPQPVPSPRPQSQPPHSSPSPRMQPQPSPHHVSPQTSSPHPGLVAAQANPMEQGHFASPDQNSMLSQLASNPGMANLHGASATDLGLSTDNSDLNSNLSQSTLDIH

Molecule `Cc1cc(-c2ncc(N(C)c3cc(C4CCN(C)CC4)c4c(c3)n(C)c(=O)n4C)cn2)cnc1C(=O)NCC#Cc1ccc2occ(C3CCC(=O)NC3=O)c2c1` (centres unmarked) [Example A112, 5-(5-((1,3-dimethyl-7-(1-methylpiperidin-4-yl)-2-oxo-2,3-dihydro-1H-benzo [d]imidazol-5-yl)(methyl)amino)pyrimidin-2-yl)-N-(3-(3-(2,6-dioxopiperidin-3-yl)benzofuran-5-yl)prop-2-yn-1-yl)-3-methylpicolinamide] yielded a maximal degradation (Dmax) greater than 80% and a DC50 of 1 to 9.9 nM.
The corresponding values for `CC(C)c1cc(N2CCOc3cc(-c4ccc(C(=O)NCC#Cc5ccc6occ(C7CCC(=O)NC7=O)c6c5)nc4)c(Cl)cc32)cc2c1n(C)c(=O)n2C` (centres unmarked) [Example A113, 5-(6-chloro-4-(7-isopropyl-1,3-dimethyl-2-oxo-2,3-dihydro-1H-benzo[d]imidazol-5-yl)-3,4-dihydro-2H-benzo[b][1,4]oxazin-7-yl)-N-(3-(3-(2,6-dioxopiperidin-3-yl)benzofuran-5-yl)prop-2-yn-1-yl)picolinamide] are greater than 80% and 10 to 99 nM.
`Cc1cc(-c2ncc(N(C)c3cc(C4CCOCC4)c4oc(=O)n(C)c4c3)cn2)cnc1C(=O)NCC#Cc1ccc2occ(C3CCC(=O)NC3=O)c2c1` (centres unmarked) [Example A114, N-(3-(3-(2,6-dioxo-piperidin-3-yl)benzofuran-5-yl)prop-2-yn-1-yl)-3-methyl-5-(5-(methyl (3-methyl-2-oxo-7-(tetrahydro-2H-pyran-4-yl)-2,3-dihydrobenzo[d]oxazol-5-yl)amino)pyrimidin-2-yl)picolinamide] showed a Dmax of less than 20% and a DC50 greater than 1000 nM.
For `Cc1cc(-c2ncc(N(C)c3cc(C(C)C)c4c(c3)n(C)c(=O)n4C)cc2Cl)cnc1C(=O)NCC#Cc1ccc2occ(C3CCC(=O)NC3=O)c2c1` (centres unmarked) [Example A116, 3-chloro-N-(3-(3-(2,6-dioxopiperidin-3-yl)benzofuran-5-yl)prop-2-yn-1-yl)-5-((7-isopropyl-1,3-dimethyl-2-oxo-2,3-dihydro-1H-benzo [d]imidazol-5-yl)(methyl)amino)-5′-methyl-[2,3′-bipyridine]-6′-carboxamide], in that order: greater than 80% and 1 to 9.9 nM.
Molecule `CC(C)c1cc(N2CCCc3cc(-c4ccc(C(=O)NCC#Cc5ccc6occ(C7CCC(=O)NC7=O)c6c5)nc4)c(F)cc32)cc2c1n(C)c(=O)n2C` (centres unmarked) [Example A117, N-(3-(3-(2,6-dioxo-piperidin-3-yl)benzofuran-5-yl)prop-2-yn-1-yl)-5-(7-fluoro-1-(7-isopropyl-1,3-dimethyl-2-oxo-2,3-dihydro-1H-benzo [d]imidazol-5-yl)-1,2,3,4-tetrahydro-quinolin-6-yl)picolinamide] gave a maximal degradation (Dmax) greater than 80% and a DC50 of 1 to 9.9 nM.
The molecule `Cn1c(=O)n(C)c2c(N3CC[Si](C)(C)CC3)nc(-c3cccc4cc(-c5ccc(C(=O)NCC#Cc6ccc7occ(C8CCC(=O)NC8=O)c7c6)nc5)ncc34)cc21` (centres unmarked) [Example A118, 5-(8-(4-(4,4-dimethyl-1,4-azasilinan-1-yl)-1,3-dimethyl-2-oxo-2,3-dihydro-1H-imidazo[4,5-c]pyridin-6-yl)isoquinolin-3-yl)-N-(3-(3-(2,6-dioxopiperidin-3-yl)benzofuran-5-yl)prop-2-yn-1-yl)picolinamide] had a Dmax of 60 to 79% and a DC50 of 10 to 99 nM.
`Cn1c(=O)oc2cc(-c3cccc4cc(-c5ccc(C(=O)NCC#Cc6ccc7occ(C8CCC(=O)NC8=O)c7c6)nc5)ncc34)ccc21` (centres unmarked) [Example A120, N-(3-(3-(2,6-dioxo-piperidin-3-yl)benzofuran-5-yl)prop-2-yn-1-yl)-5-(8-(3-methyl-2-oxo-2,3-dihydrobenzo[d]oxazol-6-yl)isoquinolin-3-yl)picolinamide]: the greatest degradation seen (Dmax) was less than 20% and the DC50 is greater than 1000 nM.
For `Cn1c(=O)n(C)c2c(C3CCS(=O)(=O)CC3)nc(-c3cccc4cc(-c5ccc(C(=O)NCC#Cc6ccc7occ(C8CCC(=O)NC8=O)c7c6)nc5)ncc34)cc21` (centres unmarked) [Example A123, 5-(8-(4-(1,1-dioxido-tetrahydro-2H-thiopyran-4-yl)-1,3-dimethyl-2-oxo-2,3-dihydro-1H-imidazo [4,5-c]pyridin-6-yl)isoquinolin-3-yl)-N-(3-(3-(2,6-dioxopiperidin-3-yl)benzofuran-5-yl)prop-2-yn-1-yl)picolinamide], in that order: 60 to 79% and 1 to 9.9 nM.
The molecule `Cc1cc(-c2ccc(Nc3cc(C(C)C)c4c(c3)n(C)c(=O)n4C)cn2)cnc1C(=O)NCC#Cc1ccc2occ(C3CCC(=O)NC3=O)c2c1` (centres unmarked) [Example A125, N-(3-(3-(2,6-dioxo-piperidin-3-yl)benzofuran-5-yl)prop-2-yn-1-yl)-5-((7-isopropyl-1,3-dimethyl-2-oxo-2,3-dihydro-1H-benzo [d]imidazol-5-yl)amino)-5′-methyl-[2,3′-bipyridine]-6′-carboxamide] yielded a maximal degradation (Dmax) of 40 to 59% and a DC50 of 10 to 99 nM.
With `Cc1cc(-c2ncc3c(n2)OCCN3c2cnc3c(c2)n(C)c(=O)n3C)cnc1C(=O)NCC#Cc1ccc2occ(C3CCC(=O)NC3=O)c2c1` (centres unmarked) [Example A126, 5-(5-(1,3-dimethyl-2-oxo-2,3-dihydro-1H-imidazo[4,5-b]pyridin-6-yl)-6,7-dihydro-5H-pyrimido[4,5-b] [1,4]oxazin-2-yl)-N-(3-(3-(2,6-dioxo-piperidin-3-yl)benzofuran-5-yl)prop-2-yn-1-yl)-3-methylpicolinamide], the Dmax is 20 to 39% and the DC50 was 1 to 9.9 nM.
For `Cc1cc(-c2cnc(N(C)c3cc(C4CCOCC4)c4c(c3)n(C)c(=O)n4C)cn2)cnc1C(=O)NCC#Cc1ccc2occ(C3CCC(=O)NC3=O)c2c1` (centres unmarked) [Example A128, 5-(5-((1,3-dimethyl-2-oxo-7-(tetrahydro-2H-pyran-4-yl)-2,3-dihydro-1H-benzo[d]imidazol-5-yl)(methyl)amino)pyrazin-2-yl)-N-(3-(3-(2,6-dioxopiperidin-3-yl)benzofuran-5-yl)prop-2-yn-1-yl)-3-methylpicolinamide], in that order: greater than 80% and 1 to 9.9 nM.
In the case of `Cn1cc(-c2ccc3c(c2)n(C)c(=O)n3C)c2cnc(-c3ccc(C(=O)NCC#Cc4ccc5occ(C6CCC(=O)NC6=O)c5c4)nc3)cc2c1=O` (centres unmarked) [Example A129, 5-(8-(1,3-dimethyl-2-oxo-2,3-dihydro-1H-benzo[d]imidazol-5-yl)-6-methyl-5-oxo-5,6-dihydro-2,6-naphthyridin-3-yl)-N-(3-(3-(2,6-dioxo-piperidin-3-yl)benzo-furan-5-yl)prop-2-yn-1-yl)picolinamide], the Dmax was greater than 80% and the half-maximal degradation concentration (DC50) is 1 to 9.9 nM.
The molecule `CN1C(=O)C(C)(C)c2cc(-c3cccc4cc(-c5ccc(C(=O)NCC#Cc6ccc7occ(C8CCC(=O)NC8=O)c7c6)nc5)ncc34)ccc21` (centres unmarked) [Example A130, N-(3-(3-(2,6-dioxo-piperidin-3-yl)benzo-furan-5-yl)prop-2-yn-1-yl)-5-(8-(1,3,3-trimethyl-2-oxoindolin-5-yl)isoquinolin-3-yl)picolinamide] registered a Dmax of 20 to 39% and a DC50 of 10 to 99 nM.

Broadly, the Dmax is the largest share of the target that was removed. A higher Dmax goes with deep degradation. As usually defined, the DC50 is the concentration giving 50% degradation. Low readings indicate a more potent degrader, high ones a less potent degrader.
